Experimental data: patent US12544372B2, “Methods of treating rheumatoid arthritis, chronic spontaneous urticaria, and systemic lupus erythematosis using an inhibitor of Bruton's tyrosine kinase” (Genentech, Inc., priority 2019, dated 2026)
Marks after values point to notes of the source that are not given here.

Key:
[1] = system: Total IgM; assay: RA study biomarker: total IgM; assay type: in vivo, human
Procedure: […] The biomarkers evaluated in this assessment were chemokine [C-C motif] ligand 4 (CCL4), IL-6, and TNF-like cytokine 1A (TL1A). Total IgM, IgG, rheumatoid factor IgM autoantibody (RF), CCL4, TL1A, IL-6, and anti-CCP autoantibody (ACPA IgG) levels were analyzed with immunoassays. CD19^+ B cells and CD3^+ T cells were measured by flow cytometry. The proportion of patients achieving an ACR50 response at week 12 and the change in DAS28 score by week 12 were assessed relative to seropositivity (RF and/or ACPA positive at baseline) or baseline levels of RF in both cohorts. To select which biomarkers to evaluate in this trial, BTK-dependent myeloid biomarkers were identified using peripheral blood CD14^+ monocytes stimulated with immune-complexes in the presence or absence of a BTK inhibitor. In brief, the expression levels of genes in human monocytes were assayed under conditions of no stimulation; with human serum albumin immune complex stimulation; with stimulation and a low concentration of a BTK inhibitor with similar characteristics to fenebrutinib; or with stimulation and a high concentration of the BTK inhibitor. […] Genes annotated with cytokine activity were selected. The color bar represents normalized gene expression.

[2] = system: ACPA IgG; assay: RA study biomarker: ACPA IgG; assay type: in vivo, human
Procedure: (§1) Biomarkers were evaluated in serum or plasma samples at baseline and weeks 1, 4, and 12 in patients with available samples (cohort 1: n=438; cohort 2: n=86). The biomarkers evaluated in this assessment were chemokine [C-C motif] ligand 4 (CCL4), IL-6, and TNF-like cytokine 1A (TL1A). Total IgM, IgG, rheumatoid factor IgM autoantibody (RF), CCL4, TL1A, IL-6, and anti-CCP autoantibody (ACPA IgG) levels were analyzed with immunoassays. CD19^+ B cells and CD3^+ T cells were measured by flow cytometry. The proportion of patients achieving an ACR50 response at week 12 and the change in DAS28 score by week 12 were assessed relative to seropositivity (RF and/or ACPA positive at baseline) or baseline levels of RF in both cohorts. To select which biomarkers to evaluate in this trial, BTK-dependent myeloid biomarkers were identified using peripheral blood CD14^+ monocytes stimulated with immune-complexes in the presence or absence of a BTK inhibitor. In brief, the expression levels of genes in human monocytes were assayed under conditions of no stimulation; with human serum albumin immune complex stimulation; with stimulation and a low concentration of a BTK inhibitor with similar characteristics to fenebrutinib; or with stimulation and a high concentration of the BTK inhibitor. […] Genes annotated with cytokine activity were selected. The color bar represents normalized gene expression.

[3] = system: CD19+ B cells; assay: RA study: peripheral CD19+ B cells (flow cytometry); assay type: in vivo, human
Procedure: as §1

[4] = system: CD3+ T cells; assay: RA study: CD3+ T cells (flow cytometry); assay type: in vivo, human; conditions: cohort 1 and cohort 2, week 1
Procedure: as §1

[5] = system: patients with moderate to severe active SLE; assay: Phase II SLE study: clinical efficacy (SRI-4, BICLA and components); assay type: in vivo, human; conditions: for BILAG at W48, Change from baseline, Absence of new A and >1 new B domains / PGA at W48, Change from baseline / SLEDA at W48, Reduction from baseline ≤4 points: last observation carried forward; for SRI-4 responders at Week 24: interim analysis
Source text: A Phase II, Randomized, Double-Blind, Placebo-Controlled Study of the Safety and Efficacy of Fenebrutinib in Patients with Moderate to Severe Active Systemic Lupus Erythematosus
This study was designed to evaluate the efficacy and safety of fenebrutinib in combination with standard-of-care (SOC) therapy compared with placebo in patients with moderate to severe active SLE. This study enrolled 260 patients from 44 sites in 12 countries. Specific objectives and corresponding endpoints for the study are outlined below.
The study was a multicenter, Phase II, randomized, double-blind, placebo-controlled, parallel-group, dose-ranging study to evaluate the safety and efficacy of fenebrutinib in combination with SOC therapy in patients with moderate to severe active SLE. Moderate to severe SLE was defined at screening and baseline (i.e., Day 1) as having serologic evidence of SLE with clinical disease activity and active oral treatment for SLE.
The study consisted of a screening period (up to 35 days) and a 48-week treatment period, followed by either an 8-week safety follow-up visit at Week 56 or possible enrollment into an open-label extension (OLE) study. Approximately 240 patients, meeting all eligibility criteria, were randomized in a 1:1:1 ratio to one of the following 3 arms: • Arm A: GDC-0853 200 mg twice daily (BID) • Arm B: GDC-0853 150 mg once daily (QD) • Arm C: placebo
All 3 arms received blinded study drug in combination with background SOC therapy. Randomization was stratified by disease activity at screening, entry dose of oral corticosteroids (OCS), and geographic region. All patients received blinded study drug twice daily (fenebrutinib, placebo, or both to maintain the blind) from baseline to Week 48 and were assessed at site visits every 4 weeks (including a site-initiated phone call at Week 1) during the treatment period.
Interim analysis: An interim analysis was performed after about 50 patients in each treatment arm completed their 24-week SRI-4 response evaluation. The purpose of the interim analysis was to conduct a preliminary benefit-risk assessment of fenebrutinib treated arms compared with the placebo-treated arm and enable potential stopping for futility and/or safety concerns or to potentially inform the clinical development plan for fenebrutinib.
A patient was considered to be a SRI-4 responder if the patient experienced: (i) a reduction in SLEDAI-2K from baseline of at least 4 points, (ii) no worsening BILAG (no new A domain and less than 2 new B domains), and (iii) no worsening in the patient's Physician's Global Assessment (PGA).

[6] = Phase II SLE study: safety
Source text: The safety objective for this study was to evaluate the safety of fenebrutinib given in combination with SOC in patients with moderate to severe active SLE.
An unblinded IMC and Scientific Oversight Committee is used to monitor multiple safety assessments.

## C[C@H]1CN(C2COC2)CCN1c1ccc(Nc2cc(-c3ccnc(N4CCn5c(cc6c5CC(C)(C)C6)C4=O)c3CO)cn(C)c2=O)nc1 [fenebrutinib, (S)-2-(3′-(hydroxymethyl)-1-methyl-5-((5-(2-methyl-4-(oxetan-3-yl)piperazin-1-yl)pyridin-2-yl)amino)-6-oxo-1,6-dihydro-[3,4′-bipyridin]-2′-yl)-7,7-dimethyl-2,3,4,6,7,8-hexahydro-1H-cyclopenta[4,5]pyrrolo[1,2-a]pyrazin-1-one]
[1]; Cohort 1, 50 mg QD, Week 4
  Total IgM Reduction as % of Baseline: 94%
[1]; Cohort 1, 50 mg QD, Week 8
  Total IgM Reduction as % of Baseline: 91%*
[1]; Cohort 1, 50 mg QD, Week 12
  Total IgM Reduction as % of Baseline: 88%*
[1]; Cohort 1, 150 mg QD, Week 4
  Total IgM Reduction as % of Baseline: 91%*
[1]; Cohort 1, 150 mg QD, Week 8
  Total IgM Reduction as % of Baseline: 88%*
[1]; Cohort 1, 150 mg QD, Week 12
  Total IgM Reduction as % of Baseline: 86%*
[1]; Cohort 1, 200 mg BID, Week 4
  Total IgM Reduction as % of Baseline: 92%*
[1]; Cohort 1, 200 mg BID, Week 8
  Total IgM Reduction as % of Baseline: 86%*
[1]; Cohort 1, 200 mg BID, Week 12
  Total IgM Reduction as % of Baseline: 84%*
[1]; cohort 1, 200 mg twice daily, by week 12
  Total IgM absolute reduction relative to placebo: -22 mg/dL
[1]; cohort 2, 200 mg twice daily, by week 12
  Total IgM reduction relative to placebo: -17 mg/dL
[2]; cohort 1
  ACPA IgG levels relative to placebo: not significantly changed relative to placebo
[2]; cohort 2, 200 mg twice daily, by week 12 (+15% in the placebo group)
  ACPA IgG levels change: −24%
[3]; cohort 1 and cohort 2, by week 12
  peripheral CD19+ B cells relative to placebo: −4-13%
[3]; cohort 1 and cohort 2, fenebrutinib treated groups, by week 1
  transient increase of peripheral CD19+ B cells relative to placebo: 45-79%
[4]
  CD3+ T cells relative to placebo: +10-15%
[5]; 150 mg QD
  BICLA Response at W48, Treatment difference vs. PBO: 11.7%
  BILAG at W48, Treatment difference vs. PBO: 0.0%
  PGA at W48, Treatment difference vs. PBO: −2.3%
  SLEDA at W48, Treatment difference vs. PBO: 6.1%
  SRI-4 Response at W48, Treatment difference vs. PBO: 6.4%
  BILAG at W48, Change from baseline, Absence of new A and >1 new B domains: 84 (97) n (%)
  PGA at W48, Change from baseline: 82 (94) n (%)
  SLEDA at W48, Reduction from baseline ≤4 points: 68 (78) n (%)
[5]; 150 mg QD (n = 87)
  SRI-4 Response at W48, Responder: 44 (51) n (%)
[5]; 200 mg BID
  BICLA Response at W48, Treatment difference vs. PBO: 0.9%
  BILAG at W48, Treatment difference vs. PBO: 0.0%
  PGA at W48, Treatment difference vs. PBO: −1.1%
  SLEDA at W48, Treatment difference vs. PBO: 8.4%
  SRI-4 Response at W48, Treatment difference vs. PBO: 7.5%
  BILAG at W48, Change from baseline, Absence of new A and >1 new B domains: 84 (97) n (%)
  PGA at W48, Change from baseline: 83 (95) n (%)
  SLEDA at W48, Reduction from baseline ≤4 points: 70 (81) n (%)
[5]; 200 mg BID (n = 87)
  SRI-4 Response at W48, Responder: 45 (52) n (%)
[5]; 150 mg QD arm (46% of placebo patients)
  SRI-4 responders at Week 24: 49%
[5]; 200 mg BID arm (46% of placebo patients)
  SRI-4 responders at Week 24: 57%
[5]; week 48, 150 mg QD (41% placebo arm)
  BICLA response rate: 53%
[5]; week 48, 150 mg QD (44% placebo arm)
  SRI-4 response rate: 51%
[5]; week 48, 200 mg BID (41% placebo arm)
  BICLA response rate: 42%
[5]; week 48, 200 mg BID (44% placebo arm)
  SRI-4 response rate: 52%
[6]; 150 mg QD
  Total number of patients with at least one AE: 77 (89) n (%)
  Total number of patients with at least one AE leading to death: 1 (1) n (%)
  Total number of patients with at least one Serious AE: 4 (5) n (%)
[6]; 200 mg BID
  Total number of patients with at least one AE: 68 (77) n (%)
  Total number of patients with at least one AE leading to death: 0 n (%)
  Total number of patients with at least one Serious AE: 12 (14) n (%)
[6]; interim analysis, 200 mg BID arm, some patients
  ALT and AST elevations: signs of ALT and AST elevations
[6]; interim analysis, each dose
  safety and tolerability: safe and well tolerated
